Data taken from patent publication US8937089B2, “Synergistic mixtures of anthranilamide invertebrate pest control agents” (priority 2004, dated 2015).

Legend:
Assay in all cases: whole plant or invertebrate
Format in all cases: in vivo
[1] = tested on: potato leafhopper (Empoasca fabae Harris)
Protocol: (§1) Test compounds were formulated using a solution containing 10% acetone, 90% water and 300 ppm X-77® Spreader Lo-Foam Formula non-ionic surfactant containing alkylarylpolyoxyethylene, free fatty acids, glycols and 2-propanol (Loveland Industries, Inc.) to provide the desired concentration in ppm. Formulated test solutions were then applied in 1 mL volumes through a SUJ2 atomizer nozzle with 1/8 JJ custom body (Spraying Systems Co.) positioned 1.27 cm (0.5 inches) above the top of each test unit.
[…] White sand was added to the top of the soil, and one of the primary leaves was excised prior to application. Test compounds were formulated and sprayed with 3 replications as described for Test A. After spraying, the test units were allowed to dry for 1 hour before they were infested with 5 potato leafhoppers (18- to 21-day-old adults). A black, screened cap was placed on the top of each container. The test units were held for 6 days in a growth chamber at 19-21° C. and 50-70% relative humidity.

[2] = tested on: corn planthopper (Peregrines maidis)
Protocol: as §1
For evaluating control of corn planthopper (Peregrines maidis) through contact and/or systemic means, each test unit consisted of a small open cylindrical container with a 3- to 4-day-old corn (maize) plant (spike) inside. White sand was added to the top of the soil prior to application. Test compounds were formulated and sprayed with 3 replications as described for Test A. After spraying, the test units were allowed to dry for 1 hour before they were post-infested with 10 to 20 corn planthoppers (18- to 20-day-old nymphs) by sprinkling them onto the sand with a salt shaker. A black, screened cap was placed on the top of each container. The test units were held for 6 days in a growth chamber at 19-21° C. and 50-70% relative humidity.

[3] = tested on: cotton melon aphid (Aphis gossypii Glover); details: for mortality at 1000 ppm: rate 1000 ppm
Protocol: as §1
(§2) For evaluating control of cotton melon aphid (Aphis gossypii Glover) through contact and/or systemic means, each test unit consisted of a small open container with a 6- to 7-day-old cotton plant inside. This was pre-infested by placing on a leaf of the test plant 30 to 40 aphids on a piece of leaf excised from a culture plant (cut-leaf method). The larvae moved onto the test plant as the leaf piece desiccated. After pre-infestation, the soil of the test unit was covered with a layer of sand.
(§3) Test compounds were formulated and sprayed as described for Test A. The applications were replicated three times. After spraying of the formulated test compounds, each test unit was allowed to dry for 1 hour and then a black, screened cap was placed on top. The test units were held for 6 days in a growth chamber at 19-21° C. and 50-70% relative humidity.

[4] = tested on: silverleaf whitefly (Bemisia argentifolii Bellows and Perring); details: Bemisia argentifolii, in Gossypium hirsutum, Table 2B, read-out: % mortality (obs); for mortality at 500 ppm: rate 500 ppm; for mortality at 1000 ppm: rate 1000 ppm
Description: For evaluating control of silverleaf whitefly (Bemisia argentifolii Bellows and Perring) through contact and/or systemic means, each test unit consisted of a small open container with a 12- to 14-day-old cotton plant inside. This was pre-infested by placing test units into cages infested with adult whiteflies so that oviposition on the cotton leaves could occur. The adults were removed from the plants with an air-blast nozzle, and the test units were capped. The test units were then stored 2 to 3 days before spraying.
as §1
The results for all experimental compositions in this test were replicated three times. After spraying of the formulated test composition, each test unit was allowed to dry for 1 hour and the cap removed. The test units were held for 13 days in a growth chamber at 28° C. and 50-70% relative humidity.

[5] = tested on: green peach aphid (Myzus persicae Sulzer); details: Green Peach Aphid; for mortality at 10 ppm: rate 10 ppm; for mortality at 100 ppm: rate 100 ppm; for mortality at 1000 ppm: rate 1000 ppm
Protocol: as §1
as §2, with “green peach” for “cotton melon”, “(Myzus persicae Sulzer)” for “(Aphis gossypii Glover)”, “12-” for “6-”, “15-day-old radish” for “7-day-old cotton”
as §3, with “described in” for “described for”, “Test A,” for “Test A. The applications were”, “test compound,” for “test compounds,”

[6] = tested on: western flower thrip (Frankliniella occidentalis Pergande)
Protocol: as §1
For evaluating control of the western flower thrip (Frankliniella occidentalis Pergande) through contact and/or systemic means, each test unit consisted of a small open container with a 5- to 7-day-old bean (var. Soleil) plant inside.
Test solutions were formulated and sprayed with 3 replications as described for Test A. After spraying, the test units were allowed to dry for 1 hour, 22 to 27 adult thrips were added to each unit and then a black, screened cap was placed on top. The test units were held for 7 days at 25° C. and 45-55% relative humidity.

[7] = Corn Plant Hopper, rate 100 ppm, read-out: % mortality (obs)
[8] = Corn Plant Hopper, rate 1000 ppm, read-out: % mortality (obs)
[9] = Aphis gossypii, read-out: % mortality (obs)
[10] = Myzus persicae, in Raphanus sativus, read-out: % mortality (obs)
[11] = Frankliniella occidentalis, 168 h, rate 10 ppm, single compound, spray, 7 days, read-out: % mortality (obs)
[12] = Frankliniella occidentalis, 168 h, rate 100 ppm, single compound, spray, 7 days, read-out: % mortality (obs)
[13] = Frankliniella occidentalis, 168 h, rate 1000 ppm, single compound, spray, 7 days, read-out: % mortality (obs)
[14] = Empoasca fabae, rate 10 ppm, alone, read-out: % mortality (obs)
[15] = Empoasca fabae, rate 100 ppm, alone, read-out: % mortality (obs)
[16] = Empoasca fabae, rate 1000 ppm, alone, read-out: % mortality (obs)
[17] = rate 100 ppm, single compound, spray, 7 days

With `COC(C)(C)CCC[C@H](C)C/C=C/C(C)=C/C(=O)OC(C)C` (racemic) [Methoprene] the “% mortality (obs)” value ([1]; in vivo) was 0%.
`CC(C)N1C(=O)N(c2ccccc2)CS/C1=N\C(C)(C)C` [Buprofezin] was tested, and the mortality at 10 ppm ([2]; Corn Plant Hopper, rate 10 ppm, read-out: % mortality (obs)) was 96%, the mortality at 100 ppm [2, 7] was 97% and the mortality at 1000 ppm [2, 8] was 98%. It also gave a mortality at 10 ppm ([3]; Aphis gossypii, rate 10 ppm, read-out: % mortality (obs)) of 34%, a mortality at 100 ppm ([3]; Aphis gossypii, rate 100 ppm, read-out: % mortality (obs)) of 30% and a mortality at 1000 ppm [3, 9] of 36%. For the same molecule, the mortality at 300 ppm ([4]; rate 300 ppm) was 75%, the mortality at 500 ppm [4] was 65% and the mortality at 1000 ppm [4] was 96%. The mortality at 10 ppm [5, 10] was 63%, the mortality at 100 ppm [5, 10] was 63% and the mortality at 1000 ppm [5, 10] was 54%. It also gave a mortality at 10 ppm [6, 11] of 20%, a mortality at 100 ppm [6, 12] of 20% and a mortality at 1000 ppm [6, 13] of 30%. The mortality at 10 ppm [1, 14] was 20%, the mortality at 100 ppm [1, 15] was 20% and the mortality at 1000 ppm [1, 16] was 0%.
With `CCOP(=S)(OCC)Oc1nc(Cl)c(Cl)cc1Cl` [Chlorpyrifos] the mortality at 0.1 ppm ([2]; Corn Plant Hopper, rate 0.1 ppm, read-out: % mortality (obs)) was 46%, the mortality at 0.2 ppm ([2]; Corn Plant Hopper, rate 0.2 ppm, read-out: % mortality (obs)) was 24% and the mortality at 0.3 ppm ([2]; Corn Plant Hopper, rate 0.3 ppm, read-out: % mortality (obs)) was 19%. It also gave a mortality at 1 ppm ([3]; Aphis gossypii, rate 1 ppm, read-out: % mortality (obs)) of 26%, a mortality at 5 ppm ([3]; Aphis gossypii, rate 5 ppm, read-out: % mortality (obs)) of 14% and a mortality at 50 ppm ([3]; Aphis gossypii, rate 50 ppm, read-out: % mortality (obs)) of 13%. For the same molecule, the mortality at 500 ppm [4] was 0%, the mortality at 1000 ppm [4] was 0% and the mortality at 2000 ppm ([4]; rate 2000 ppm) was 0%. The mortality at 10 ppm [5, 10] was 5%, the mortality at 100 ppm [5, 10] was 18% and the mortality at 1000 ppm [5, 10] was 9%. The mortality at 10 ppm [6, 11] was 20%, the mortality at 100 ppm [6, 12] was 10% and the mortality at 1000 ppm [6, 13] was 10%. It also gave a mortality at 10 ppm [1, 14] of 13%, a mortality at 100 ppm [1, 15] of 0% and a mortality at 1000 ppm [1, 16] of 7%.
`O=C(NC(=O)c1c(F)cccc1F)Nc1cc(Cl)c(OC(F)(F)C(F)F)c(Cl)c1` [Hexaflumuron] showed a mortality at 100 ppm [2, 7] of 6%, a mortality at 1000 ppm [2, 8] of 5% and a mortality at 3000 ppm ([2]; Corn Plant Hopper, rate 3000 ppm, read-out: % mortality (obs)) of 4%. The mortality at 30 ppm ([3]; Aphis gossypii, rate 30 ppm, read-out: % mortality (obs)) was 32%, the mortality at 1000 ppm [3, 9] was 30% and the mortality at 3000 ppm ([3]; Aphis gossypii, rate 3000 ppm, read-out: % mortality (obs)) was 29%. It also gave a mortality at 10 ppm ([4]; rate 10 ppm) of 1%, a mortality at 60 ppm ([4]; rate 60 ppm) of 0% and a mortality at 360 ppm ([4]; rate 360 ppm) of 0%. For the same molecule, the mortality at 100 ppm [5, 10] was 8%, the mortality at 1000 ppm [5, 10] was 6% and the mortality at 3000 ppm ([5]; Myzus persicae, in Raphanus sativus, rate 3000 ppm, read-out: % mortality (obs)) was 13%. For the same molecule, the mortality at 100 ppm [1, 15] was 13%, the mortality at 1000 ppm [1, 16] was 13% and the mortality at 3000 ppm ([1]; Empoasca fabae, rate 3000 ppm, alone, read-out: % mortality (obs)) was 27%.
Work on `O=C(NC(=O)c1c(F)cccc1F)Nc1cc(Cl)c(OC(F)(F)C(F)C(F)(F)F)cc1Cl` (stereo not drawn) [Lufenuron] yielded a mortality at 0.08 ppm ([2]; Corn Plant Hopper, rate 0.08 ppm, read-out: % mortality (obs)) of 9%, a mortality at 0.4 ppm ([2]; Corn Plant Hopper, rate 0.4 ppm, read-out: % mortality (obs)) of 7% and a mortality at 2 ppm ([2]; Corn Plant Hopper, rate 2 ppm, read-out: % mortality (obs)) of 7%. For the same molecule, the mortality at 0.08 ppm ([3]; Aphis gossypii, rate 0.08 ppm, read-out: % mortality (obs)) was 28%, the mortality at 0.4 ppm ([3]; Aphis gossypii, rate 0.4 ppm, read-out: % mortality (obs)) was 39% and the mortality at 2 ppm ([3]; Aphis gossypii, rate 2 ppm, read-out: % mortality (obs)) was 58%. The mortality at 50 ppm ([5]; Myzus persicae, in Raphanus sativus, rate 50 ppm, read-out: % mortality (obs)) was 34%, the mortality at 250 ppm ([5]; Myzus persicae, in Raphanus sativus, rate 250 ppm, read-out: % mortality (obs)) was 15% and the mortality at 1000 ppm [5, 10] was 28%. The mortality at 10 ppm [6, 11] was 90%, the mortality at 100 ppm [6, 12] was 80% and the mortality at 500 ppm ([6]; Frankliniella occidentalis, 168 h, rate 500 ppm, single compound, spray, 7 days, read-out: % mortality (obs)) was 80%. For the same molecule, the mortality at 0.08 ppm ([1]; Empoasca fabae, rate 0.08 ppm, alone, read-out: % mortality (obs)) was 40%, the mortality at 0.4 ppm ([1]; Empoasca fabae, rate 0.4 ppm, alone, read-out: % mortality (obs)) was 53% and the mortality at 2 ppm ([1]; Empoasca fabae, rate 2 ppm, alone, read-out: % mortality (obs)) was 40%.
With Abamectin the “% mortality (obs)” value ([2]; Corn Plant Hopper, rate 1.6 ppm) was 7%, the “% mortality (obs)” value ([2]; Corn Plant Hopper, rate 8 ppm) was 93% and the “% mortality (obs)” value ([2]; Corn Plant Hopper, rate 40 ppm) was 100%. For the same molecule, the “% mortality (obs)” value ([3]; rate 0.08 ppm) was 35%, the “% mortality (obs)” value ([3]; rate 0.4 ppm) was 58% and the “% mortality (obs)” value ([3]; rate 2 ppm) was 100%. For the same molecule, the “% mortality (obs)” value ([5]; rate 0.08 ppm) was 47%, the “% mortality (obs)” value ([5]; rate 0.4 ppm) was 100% and the “% mortality (obs)” value ([5]; rate 2 ppm) was 100%. The “% mortality (obs)” value ([6]; rate 1 ppm, single compound, spray, 7 days) was 100%, the “% mortality (obs)” value ([6]; rate 10 ppm, single compound, spray, 7 days) was 100% and the “% mortality (obs)” value [6, 17] was 100%. The “% mortality (obs)” value ([1]; rate 10 ppm, alone) was 47%, the “% mortality (obs)” value ([1]; rate 100 ppm, alone) was 100% and the “% mortality (obs)” value ([1]; rate 1000 ppm, alone) was 100%.
Clothianidin was tested, and the “% mortality (obs)” value ([2]; Corn Plant Hopper, rate 10 ppm) was 100%, the “% mortality (obs)” value ([2]; Corn Plant Hopper, rate 100 ppm) was 100% and the “% mortality (obs)” value ([2]; Corn Plant Hopper, rate 1000 ppm) was 100%. The “% mortality (obs)” value ([3]; rate 0.08 ppm) was 75%, the “% mortality (obs)” value ([3]; rate 0.4 ppm) was 91% and the “% mortality (obs)” value ([3]; rate 2 ppm) was 99%. The “% mortality (obs)” value ([5]; rate 0.08 ppm) was 100%, the “% mortality (obs)” value ([5]; rate 0.4 ppm) was 100% and the “% mortality (obs)” value ([5]; rate 2 ppm) was 100%. The “% mortality (obs)” value [6, 17] was 90%, the “% mortality (obs)” value ([6]; rate 500 ppm, single compound, spray, 7 days) was 100% and the “% mortality (obs)” value ([6]; rate 1000 ppm, single compound, spray, 7 days) was 100%. For the same molecule, the “% mortality (obs)” value ([1]; rate 10 ppm, alone) was 93%, the “% mortality (obs)” value ([1]; rate 100 ppm, alone) was 100% and the “% mortality (obs)” value ([1]; rate 1000 ppm, alone) was 100%.
With Dinotefuran the “% mortality (obs)” value ([2]; in vivo) was 5%, the “% mortality (obs)” value ([6]; in vivo) was 50% and the “% mortality (obs)” value ([1]; in vivo) was 7%.
Lambda-cyhalothrin was tested, and the “% mortality (obs)” value ([2]; in vivo) was 7% and the “% mortality (obs)” value ([6]; in vivo) was 40%.
